Assay results reported in BindingDB's records for doi:10.1016/s0960-894x(00)00161-x (University of Tokyo, 2000).

Experiment: Inhibition of Beta-glucosidase activity.

IC50 [µM] | SMILES
> 500 | O=C1c2ccccc2C(=O)N1c1ccccc1 [2-Phenyl-isoindole-1,3-dione]
> 500 | O=C1c2c(Cl)c(Cl)c(Cl)c(Cl)c2C(=O)N1CCCc1ccccc1 [4,5,6,7-Tetrachloro-2-(3-phenyl-propyl)-isoindole-1,3-dione]
> 500 | O=C1c2cccc([N+](=O)[O-])c2C(=O)N1c1ccccc1
> 500 | O=C1c2ccc([N+](=O)[O-])cc2C(=O)N1c1ccccc1 [5-Nitro-2-phenyl-isoindole-1,3-dione]
> 500 | O=C1c2ccc(O)cc2C(=O)N1c1ccccc1 [5-hydroxy-2-phenylisoindoline-1,3-dione]
> 500 | O=C1c2c(Cl)c(Cl)c(Cl)c(Cl)c2C(=O)N1CCCCCc1ccccc1 [4,5,6,7-Tetrachloro-2-(5-phenyl-pentyl)-isoindole-1,3-dione]
> 500 | O=C1c2c(Cl)c(Cl)c(Cl)c(Cl)c2C(=O)N1CCCCc1ccccc1 [4,5,6,7-tetrachloro-2-(4-phenylbutyl)isoindoline-1,3-dione]
> 500 | O=C1c2cccc(O)c2C(=O)N1c1ccccc1 [4-Hydroxy-2-phenyl-isoindole-1,3-dione]
> 500 | O=C1c2ccccc2C(=O)N1CCCc1ccccc1 [2-(3-Phenyl-propyl)-isoindole-1,3-dione]
> 500 | O=C1c2c(Cl)c(Cl)c(Cl)c(Cl)c2C(=O)N1CCCCCCc1ccccc1 [4,5,6,7-Tetrachloro-2-(6-phenyl-hexyl)-isoindole-1,3-dione]
> 500 | O=C1c2c(Cl)c(Cl)c(Cl)c(Cl)c2C(=O)N1CCc1ccccc1 [4,5,6,7-Tetrachloro-2-phenethyl-isoindole-1,3-dione]
> 500 | Nc1ccc2c(c1)C(=O)N(c1ccccc1)C2=O [5-Amino-2-phenyl-isoindole-1,3-dione]
> 500 | O=C1c2c(Cl)c(Cl)c(Cl)c(Cl)c2C(=O)N1Cc1ccccc1 [2-Benzyl-4,5,6,7-tetrachloro-isoindole-1,3-dione]
> 500 | O=C1c2ccccc2C(=O)N1CCc1ccccc1 [2-Phenethyl-isoindole-1,3-dione]
